How the values were obtained:
Assay type in all cases: in vivo
[1] = system: sicklepod (Cassia obtusifolia, CASOB); test: Post-emerge test, greenhouse herbicide activity screening; conditions: post-emerge, 14 days after application, rating scale 0-100
Source text: (§1) A standard greenhouse herbicide activity screening system was used to evaluate the herbicidal efficacy and crop safety of these test compounds. Seven broadleaf weed species including redroot pigweed (Amaranthus retroflexus, AMARE, velvetleaf (Abutilon theophrasti, ABUTH), sicklepod (Cassia obtusifolia, CASOB), ivyleaf morningglory (Ipomoea hederacea, IPOHE), lambsquarters (Chenopodium album, CHEAL), common ragweed (Ambrosia artemisizfolia L., AMBEL), and cocklebur (Xanthium strumarium, XANST) were used as test species. Four grass weed species including green foxtail (Setaria viridis, SETVI), barnyardgrass (Echinochloa crus-galli, ECHCG), johnsongrass (Sorghum halepense, SORHA), and large crabgrass (Digitaria sanguinalis, DIGSA) were also used. In addition, three crop species, field corn (Zea mays L., var. Dekalb 535, CORN), soybean (Glycine max L., var. Pella 86, SOY), and is upland rice (Oryza sp., var. Tebonnet, RICE) were included.
(§2) All plants were grown in 10 cm square plastic pots which were filled with a sandy loam soil mix. For pre-emerge tests, seeds were planted one day prior to application of the test compounds. For post-emerge tests, seeds were planted 8-21 days prior to the test to allow emergence and good foliage development prior to application of the test substances. At the time of the post-emerge application, plants of all species were usually at the 2-3 leaf stage of development.
(§3) All test compounds Were dissolved in acetone and applied to the test units in a volume of 187 l /ha. Test materials were applied at rates ranging from 15 g ai/ha to 1000 g ai/ha using a track sprayer equipped with a TJ8001E even flow flat fan spray nozzle. Plants were arranged on a shelf so that the top of the canopy (post-emerge) or top of the soil surface (pre-emerge) was 40-45 cm below the nozzle. Pressurized air was used to force the test solution through the nozzle as it was mechanically advanced (via electrically driven chain drive) over the top of all test plants/pots. This application simulates a typical commercial field herbicide application.
(§4) In the post-emerge test, a commercial non-ionic surfactant was also included (0.25% v/v) to enhance wetting of the leaf surfaces of target plants. Immediately after application, test units of the pre-emerge applications were watered at the soil surface to incorporate the test materials. Subsequently, these test units were bottom-watered. Post-emerge test units were always bottom-watered.
(§5) At 14 days after application of the test materials, phytotoxicity ratings were recorded. A rating scale of 0-100 was used as previously described in Research Methods in Weed Science, 2nd edition, B. Truelove, Ed., Southern Weed Science Society, Auburn University, Auburn, Ala. 1977. Briefly, “0” corresponds to no damage and “100” corresponds to complete death of all plants in the test unit. This scale was used both to determine efficacy against weed species and damage to crop species. Herbicide activity data for various compounds of this invention, which are shown by compound No. in Tables 1-8, are shown in Tables 11 and 12.

[2] = system: redroot pigweed (Amaranthus retroflexus, AMARE); test: as above; conditions: post-emerge, 14 days after application, rating scale 0-100
Source text: as §1, §2, §3, §4, §5

[3] = system: lambsquarters (Chenopodium album, CHEAL); test: as above; conditions: post-emerge, 14 days after application, rating scale 0-100
Source text: as §1, §2, §3, §4, §5

[4] = system: velvetleaf (Abutilon theophrasti, ABUTH); test: as above; conditions: post-emerge, 14 days after application, rating scale 0-100
Source text: as §1, §2, §3, §4, §5

[5] = system: ivyleaf morningglory (Ipomoea hederacea, IPOHE); test: as above; conditions: post-emerge, 14 days after application, rating scale 0-100
Source text: as §1, §2, §3, §4, §5

[6] = system: green foxtail (Setaria viridis, SETVI); test: as above; conditions: post-emerge, 14 days after application, rating scale 0-100
Source text: as §1, §2, §3, §4, §5

[7] = system: large crabgrass (Digitaria sanguinalis, DIGSA); test: as above; conditions: post-emerge, 14 days after application, rating scale 0-100
Source text: as §1, §2, §3, §4, §5

[8] = system: barnyardgrass (Echinochloa crus-galli, ECHCG); test: as above; conditions: post-emerge, 14 days after application, rating scale 0-100
Source text: as §1, §2, §3, §4, §5

[9] = system: upland rice (Oryza sp., var. Tebonnet, RICE); test: Post-emerge test, crop safety; conditions: post-emerge, 14 days after application, rating scale 0-100
Source text: as §1, §2, §3, §4, §5

[10] = system: field corn (Zea mays L., var. Dekalb 535, CORN); test: Post-emerge test, crop safety; conditions: post-emerge, 14 days after application, rating scale 0-100
Source text: as §1, §2, §3, §4, §5

[11] = system: sicklepod (Cassia obtusifolia, CASOB); test: Pre-emerge test, greenhouse herbicide activity screening; conditions: pre-emerge, 14 days after application, scale 0-100
Source text: as §1, §2, §3, §4, §5

[12] = system: lambsquarters (Chenopodium album, CHEAL); test: as above; conditions: pre-emerge, 14 days after application, scale 0-100
Source text: as §1, §2, §3, §4, §5

[13] = system: velvetleaf (Abutilon theophrasti, ABUTH); test: as above; conditions: pre-emerge, 14 days after application, scale 0-100
Source text: as §1, §2, §3, §4, §5

[14] = system: ivyleaf morningglory (Ipomoea hederacea, IPOHE); test: as above; conditions: pre-emerge, 14 days after application, scale 0-100
Source text: as §1, §2, §3, §4, §5

[15] = system: green foxtail (Setaria viridis, SETVI); test: as above; conditions: pre-emerge, 14 days after application, scale 0-100
Source text: as §1, §2, §3, §4, §5

[16] = system: large crabgrass (Digitaria sanguinalis, DIGSA); test: as above; conditions: pre-emerge, 14 days after application, scale 0-100
Source text: as §1, §2, §3, §4, §5

[17] = system: barnyardgrass (Echinochloa crus-galli, ECHCG); test: as above; conditions: pre-emerge, 14 days after application, scale 0-100
Source text: as §1, §2, §3, §4, §5

[18] = system: redroot pigweed (Amaranthus retroflexus, AMARE); test: as above; conditions: pre-emerge, 14 days after application, scale 0-100
Source text: as §1, §2
as §3, with “Test materials were applied at rates ranging from 15 g ai/ha to 1000 g ai/ha using a track sprayer equipped with a TJ8001E even flow flat fan spray nozzle.” left out
as §4, §5

[19] = system: upland rice (Oryza sp., var. Tebonnet, RICE); test: Pre-emerge test, crop safety; conditions: pre-emerge, 14 days after application, scale 0-100
Source text: as §1, §2, §3, §4, §5

[20] = system: field corn (Zea mays L., var. Dekalb 535, CORN); test: Pre-emerge test, crop safety; conditions: pre-emerge, 14 days after application, scale 0-100
Source text: as §1, §2, §3, §4, §5

Row | Compound | CASOB phytotoxicity rating ([1]; 63 g ai/ha) | CASOB phytotoxicity rating ([1]; 250 g ai/ha) | AMARE phytotoxicity rating ([2]; 63 g ai/ha) | AMARE phytotoxicity rating ([2]; 250 g ai/ha) | CHEAL phytotoxicity rating ([3]; 63 g ai/ha) | CHEAL phytotoxicity rating ([3]; 250 g ai/ha) | ABUTH phytotoxicity rating ([4]; 63 g ai/ha) | ABUTH phytotoxicity rating ([4]; 250 g ai/ha) | IPOHE phytotoxicity rating ([5]; 63 g ai/ha) | IPOHE phytotoxicity rating ([5]; 250 g ai/ha) | SETVI phytotoxicity rating ([6]; 63 g ai/ha) | SETVI phytotoxicity rating ([6]; 250 g ai/ha) | DIGSA phytotoxicity rating ([7]; 63 g ai/ha) | DIGSA phytotoxicity rating ([7]; 250 g ai/ha) | ECHCG phytotoxicity rating ([8]; 63 g ai/ha) | ECHCG phytotoxicity rating ([8]; 250 g ai/ha) | RICE phytotoxicity rating (crop damage) ([9]; 63 g ai/ha) | RICE phytotoxicity rating (crop damage) ([9]; 250 g ai/ha) | CORN phytotoxicity rating (crop damage) ([10]; 63 g ai/ha) | CORN phytotoxicity rating (crop damage) ([10]; 250 g ai/ha) | further results
1 | COc1c(Cl)cc(F)c(-n2c(=O)cc(C(F)(F)F)n(C)c2=O)c1NC(=O)COc1ccc(Cl)cc1 [2-135] | 70 | 100 | 100 | 100 | 100 | 100 | 100 | 100 | 100 | 95 | 15 | 40 | 0 | 10 | 0 | 20 | 20 | 40 | 10 | 25 | phytotoxicity rating CASOB ([11]; 63 g ai/ha): 10; phytotoxicity rating CASOB ([11]; 250 g ai/ha): 60; phytotoxicity rating CHEAL ([12]; 63 g ai/ha): 100; phytotoxicity rating CHEAL ([12]; 250 g ai/ha): 100; phytotoxicity rating ABUTH ([13]; 63 g ai/ha): 90; phytotoxicity rating ABUTH ([13]; 250 g ai/ha): 100; phytotoxicity rating IPOHE ([14]; 63 g ai/ha): 20; phytotoxicity rating IPOHE ([14]; 250 g ai/ha): 100; phytotoxicity rating SETVI ([15]; 63 g ai/ha): 80; phytotoxicity rating SETVI ([15]; 250 g ai/ha): 100; phytotoxicity rating DIGSA ([16]; 63 g ai/ha): 60; phytotoxicity rating DIGSA ([16]; 250 g ai/ha): 95; phytotoxicity rating ECHCG ([17]; 63 g ai/ha): 10; phytotoxicity rating ECHCG ([17]; 250 g ai/ha): 30; phytotoxicity rating AMARE ([18]; 63 g ai/ha): 95; phytotoxicity rating AMARE ([18]; 250 g ai/ha): 100; phytotoxicity rating RICE (crop damage) ([19]; 63 g ai/ha): 0; phytotoxicity rating RICE (crop damage) ([19]; 250 g ai/ha): 35; phytotoxicity rating CORN (crop damage) ([20]; 63 g ai/ha): 0; phytotoxicity rating CORN (crop damage) ([20]; 250 g ai/ha): 0
2 | COc1c(Cl)cc(F)c(-n2c(=O)cc(C(F)(F)F)n(C)c2=O)c1NC(=O)C(C#N)=Cc1ccccc1 [2-136] | 60 | 100 | 100 | 100 | 95 | 100 | 100 | 100 | 80 | 100 | 20 | 30 | 0 | 20 | 0 | 10 | 5 | 10 | 15 | 10 | phytotoxicity rating CASOB ([11]; 63 g ai/ha): 0; phytotoxicity rating CASOB ([11]; 250 g ai/ha): 40; phytotoxicity rating CHEAL ([12]; 63 g ai/ha): 90; phytotoxicity rating CHEAL ([12]; 250 g ai/ha): 100; phytotoxicity rating ABUTH ([13]; 63 g ai/ha): 80; phytotoxicity rating ABUTH ([13]; 250 g ai/ha): 100; phytotoxicity rating IPOHE ([14]; 63 g ai/ha): 0; phytotoxicity rating IPOHE ([14]; 250 g ai/ha): 100; phytotoxicity rating SETVI ([15]; 63 g ai/ha): 10; phytotoxicity rating SETVI ([15]; 250 g ai/ha): 40; phytotoxicity rating DIGSA ([16]; 63 g ai/ha): 0; phytotoxicity rating DIGSA ([16]; 250 g ai/ha): 10; phytotoxicity rating ECHCG ([17]; 63 g ai/ha): 0; phytotoxicity rating ECHCG ([17]; 250 g ai/ha): 0; phytotoxicity rating AMARE ([18]; 63 g ai/ha): 40; phytotoxicity rating AMARE ([18]; 250 g ai/ha): 90; phytotoxicity rating RICE (crop damage) ([19]; 63 g ai/ha): 0; phytotoxicity rating RICE (crop damage) ([19]; 250 g ai/ha): 10; phytotoxicity rating CORN (crop damage) ([20]; 63 g ai/ha): 0; phytotoxicity rating CORN (crop damage) ([20]; 250 g ai/ha): 0
